# In US6593325B1, “Pyrido-pyridazine derivatives as ligands for GABA receptors” (Merck Sharp & Dohme Ltd., priority 1999, dated 2003):
smiles,measurement,value
"Cn1ncnc1COc1nc2c(-c3ccccc3)nncc2cc1-c1ccccc1 [Example 1, 3,8-Diphenyl-2-(2-methyl-2H-[1,2,4]triazol-3-ylmethoxy)pyrido[2,3-d]pyridazine]",melting point,222 to 223 °C
